According to patent US10308689B2, “Dengue virus (DV) polypeptide sequences, T cell epitopes and methods and uses thereof” (LA JOLLA INSTITUTE FOR ALLERGY AND IMMUNOLOGY, priority 2010, dated 2019):

Test system: PBMC of healthy adult blood donors from Colombo, Sri Lanka
Assay: Ex vivo IFNγ ELISPOT, HLA-matched PBMC of Sri Lankan blood donors
Type: cell-based, human
Design: Total Response per epitope: unit not given here
Conditions: for Total Response per epitope: IFNγ ELISPOT response summed over responding donors; for # donors responded: number of donors responding to the epitope, HLA-matched PBMC, proteome-wide screen; for Total Response per epitope / T cell response [SFC]: per epitope; for T cell response [SFC]: ex vivo IFNγ SFC/10^6 PBMC; for # of responders: responding donors, HLA allele(s)

## CC(C)C[C@H](N)C(=O)N1CCC[C@H]1C(=O)N[C@@H](CCC(=O)O)C(=O)N[C@@H](CCC(=O)O)C(=O)N[C@@H](CCC(N)=O)C(=O)N[C@@H](CC(=O)O)C(=O)N[C@@H](CCC(N)=O)C(=O)N[C@@H](CC(N)=O)C(=O)N[C@@H](Cc1ccc(O)cc1)C(=O)O
  Total Response per epitope: 1166.7
  # donors responded: 5

## CC(C)C[C@H](NC(=O)[C@H](CC(C)C)NC(=O)[C@H](CC(C)C)NC(=O)[C@@H](NC(=O)[C@H](CCC(=O)O)NC(=O)[C@H](CC(C)C)NC(=O)[C@@H](NC(=O)[C@H](CCC(=O)O)NC(=O)[C@@H]1CCCN1C(=O)[C@@H](N)CC(C)C)[C@@H](C)O)[C@@H](C)O)C(=O)O
  Total Response per epitope: 296.7
  # donors responded: 4

## CSCC[C@H](NC(=O)[C@H](Cc1ccccc1)NC(=O)[C@@H](NC(=O)[C@@H]1CCCN1C(=O)[C@@H](N)CC(C)C)[C@@H](C)O)C(=O)N[C@H](C(=O)N[C@@H](CCC(N)=O)C(=O)N[C@@H](CCCCN)C(=O)N[C@@H](C)C(=O)N[C@@H](CCCNC(=N)N)C(=O)O)[C@@H](C)O
  Total Response per epitope: 1263.3
  # donors responded: 8

## CC[C@H](C)[C@H](NC(=O)[C@H](Cc1ccccc1)NC(=O)[C@H](C)NC(=O)[C@@H](N)CCSC)C(=O)N[C@@H](C)C(=O)N[C@@H](Cc1ccccc1)C(=O)N[C@@H](CC(C)C)C(=O)N[C@@H](CCCNC(=N)N)C(=O)N[C@@H](Cc1ccccc1)C(=O)O
  Total Response per epitope: 146.7
  # donors responded: 2

## CC[C@H](C)[C@H](NC(=O)[C@H](CC(N)=O)NC(=O)[C@H](C)NC(=O)[C@@H](N)CCSC)C(=O)N[C@@H](Cc1ccccc1)C(=O)N[C@@H](CCCNC(=N)N)C(=O)NCC(=O)N[C@@H](CO)C(=O)N[C@@H](Cc1ccc(O)cc1)C(=O)O
  Total Response per epitope: 821.7
  # donors responded: 5

## CC[C@H](C)[C@H](NC(=O)[C@H](CC(C)C)NC(=O)[C@H](C)NC(=O)[C@H](CC(C)C)NC(=O)[C@H](CC(C)C)NC(=O)[C@@H](N)CCSC)C(=O)N[C@@H](C)C(=O)N[C@H](C(=O)N[C@@H](CC(C)C)C(=O)O)C(C)C
  Total Response per epitope: 81.7
  # donors responded: 1

## CC[C@H](C)[C@H](NC(=O)[C@H](CC(C)C)NC(=O)[C@H](CC(C)C)NC(=O)[C@@H](N)CCSC)C(=O)N[C@@H](CC(C)C)C(=O)N[C@@H](CS)C(=O)N[C@H](C(=O)N[C@H](C(=O)N[C@@H](CCC(N)=O)C(=O)N[C@H](C(=O)O)C(C)C)[C@@H](C)O)C(C)C
  Total Response per epitope: 43.3
  # donors responded: 1

## CSCC[C@H](NC(=O)[C@H](CO)NC(=O)[C@@H]1CCCN1C(=O)[C@@H](N)CCSC)C(=O)N[C@@H](CCCCN)C(=O)N[C@@H](CCCNC(=N)N)C(=O)N[C@@H](Cc1ccccc1)C(=O)N[C@@H](CCCNC(=N)N)C(=O)N[C@@H](CCCNC(=N)N)C(=O)N[C@@H](CCC(=O)O)C(=O)O
  Total Response per epitope: 1336.7
  # donors responded: 5

## CC[C@H](C)[C@H](NC(=O)[C@@H](NC(=O)[C@H](CO)NC(=O)[C@@H]1CCCN1C(=O)[C@@H](N)CCSC)C(C)C)C(=O)N[C@@H](CCC(=O)O)C(=O)N[C@@H](CCCCN)C(=O)N[C@@H](CCSC)C(=O)N[C@@H](CCC(=O)O)C(=O)N[C@H](C(=O)O)[C@@H](C)O
  Total Response per epitope: 783.3
  # donors responded: 2

## CSCC[C@H](N)C(=O)N1CCC[C@H]1C(=O)N[C@H](C(=O)N[C@H](C(=O)N[C@@H](Cc1c[nH]cn1)C(=O)N[C@@H](CO)C(=O)N[C@@H](CO)C(=O)N[C@@H](C)C(=O)N[C@@H](C)C(=O)N[C@@H](CCC(N)=O)C(=O)O)[C@@H](C)O)C(C)C
  Total Response per epitope: 183.3
  # donors responded: 2

## CSCC[C@H](NC(=O)[C@@H](NC(=O)[C@H](CCCNC(=N)N)NC(=O)CNC(=O)[C@H](CC(C)C)NC(=O)[C@H](CC(=O)O)NC(=O)[C@H](CCCNC(=N)N)NC(=O)[C@H](Cc1ccccc1)NC(=O)[C@H](CO)NC(=O)[C@@H](N)CCSC)C(C)C)C(=O)O
  Total Response per epitope: 3250.0
  # donors responded: 8
  T cell response [SFC]: 3250 SFC
  # of responders: 8

## CSCC[C@H](NC(=O)[C@H](CO)NC(=O)[C@H](Cc1ccc(O)cc1)NC(=O)[C@H](CO)NC(=O)[C@@H](N)CCSC)C(=O)N[C@@H](CS)C(=O)N[C@H](C(=O)NCC(=O)N[C@@H](CCCCN)C(=O)N[C@@H](Cc1ccccc1)C(=O)O)[C@@H](C)O
  Total Response per epitope: 2553.3
  # donors responded: 6
  T cell response [SFC]: 2553 SFC
  # of responders: 6

## CSCC[C@H](NC(=O)[C@@H](NC(=O)[C@H](Cc1ccc(O)cc1)NC(=O)[C@H](CO)NC(=O)[C@@H](N)CCSC)[C@@H](C)O)C(=O)N[C@@H](CS)C(=O)N[C@@H](CO)C(=O)NCC(=O)N[C@@H](CCCCN)C(=O)O
  Total Response per epitope: 23.3
  # donors responded: 1

## CC[C@H](C)[C@H](NC(=O)[C@H](Cc1ccc(O)cc1)NC(=O)CNC(=O)[C@H](CCCNC(=N)N)NC(=O)[C@H](C)NC(=O)[C@H](C)NC(=O)[C@@H](NC(=O)[C@H](CO)NC(=O)[C@H](C)NC(=O)[C@@H]1CCCN1)[C@@H](C)CC)C(=O)O
  Total Response per epitope: 611.7
  # donors responded: 2

## C[C@H](NC(=O)[C@H](Cc1c[nH]c2ccccc12)NC(=O)[C@@H](NC(=O)[C@H](CCCNC(=N)N)NC(=O)[C@H](Cc1ccc(O)cc1)NC(=O)[C@@H]1CCCN1C(=O)[C@H](CC(N)=O)NC(=O)[C@H](CCC(=O)O)NC(=O)[C@@H](N)CCC(N)=O)[C@@H](C)O)C(=O)N[C@@H](Cc1ccc(O)cc1)C(=O)O
  Total Response per epitope: 265.0
  # donors responded: 1

## CC(C)[C@H](NC(=O)CNC(=O)[C@H](CO)NC(=O)[C@@H](N)CCC(N)=O)C(=O)N[C@@H](CC(=O)O)C(=O)N[C@H](C(=O)N[C@@H](Cc1ccccc1)C(=O)N[C@@H](Cc1ccccc1)C(=O)N[C@H](C(=O)N1CCC[C@H]1C(=O)O)[C@@H](C)O)C(C)C
  Total Response per epitope: 103.3
  # donors responded: 1

## CC(C)C[C@H](NC(=O)[C@H](CO)NC(=O)CNC(=O)[C@H](CS)NC(=O)[C@H](Cc1c[nH]c2ccccc12)NC(=O)[C@H](CCC(N)=O)NC(=O)[C@H](CC(=O)O)NC(=O)[C@H](CCC(=O)O)NC(=O)[C@@H](N)CCCNC(=N)N)C(=O)O
  Total Response per epitope: 48.3
  # donors responded: 1

## CSCC[C@H](NC(=O)[C@H](Cc1ccc(O)cc1)NC(=O)[C@@H](N)CCCNC(=N)N)C(=O)NCC(=O)N[C@@H](CCC(=O)O)C(=O)N[C@@H](CC(=O)O)C(=O)NCC(=O)N[C@@H](CS)C(=O)N[C@@H](Cc1c[nH]c2ccccc12)C(=O)N[C@@H](Cc1ccc(O)cc1)C(=O)O
  Total Response per epitope: 66.7
  # donors responded: 1

## CC(C)C[C@H](NC(=O)[C@H](CC(C)C)NC(=O)[C@@H](NC(=O)[C@H](C)NC(=O)[C@H](C)NC(=O)[C@@H](NC(=O)[C@H](CC(C)C)NC(=O)[C@@H](N)[C@@H](C)O)[C@@H](C)O)C(C)C)C(=O)N[C@@H](CC(C)C)C(=O)N[C@H](C(=O)O)C(C)C
  Total Response per epitope: 66.7
  # donors responded: 1

## CSCC[C@H](NC(=O)[C@H](Cc1ccc(O)cc1)NC(=O)[C@@H]1CCCN1C(=O)[C@H](CC(N)=O)NC(=O)[C@H](CC(C)C)NC(=O)[C@@H](N)C(C)C)C(=O)N1CCC[C@H]1C(=O)N[C@@H](CO)C(=O)N[C@H](C(=O)O)C(C)C
  Total Response per epitope: 41.7
  # donors responded: 1
